# Results published in ChEMBL document CHEMBL1201862, “PubChem BioAssay data set” (2004).
#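 Results reflect a 48-hour exposure of cells in 96-well plates to compound at five concentrations. Abbreviation: GI50, concentration required for 50% inhibition of growth.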 The source made the active and inactive calls. Cut-off read from the data, not from the text of the source: active = GI50 up to about 1.1 µM and inactive = higher.
# Columns and labels:
# Test in all cases: inhibition of tumour cell growth, NCI panel, 48 h
# DMS-114 = system: DMS-114
# SN12C = system: SN12C
# HCT-116 = system: HCT-116
# TK-10 = system: TK-10
# M14 = system: M14
# KM12 = system: KM12
# OVCAR-3 = system: OVCAR-3
# SF-539 = system: SF-539
# MOLT-4 = system: MOLT-4
# HCT-15 = system: HCT-15
# OVCAR-5 = system: OVCAR-5
# COLO 205 = system: COLO 205
# M19-MEL = system: M19-MEL
# 786-0 = system: 786-0
# SNB-78 = system: SNB-78
# UO-31 = system: UO-31
# CCRF-CEM = system: CCRF-CEM
# SR = system: SR
SMILES,GI50 (DMS-114),GI50 (SN12C),GI50 (HCT-116),GI50 (TK-10),GI50 (M14),GI50 (KM12),GI50 (OVCAR-3),GI50 (SF-539),GI50 (MOLT-4),GI50 (HCT-15) [µM],GI50 (OVCAR-5),GI50 (COLO 205),GI50 (M19-MEL),GI50 (786-0),GI50 (SNB-78),GI50 (UO-31),GI50 (CCRF-CEM),GI50 (SR)
CC1C=C(OC(=O)c2ccccc2)C(=O)C(n2cc(F)c(=O)[nH]c2=O)O1 (stereo not drawn),> 100 µM (inactive),> 100 µM (inactive),38.5 µM (inactive),> 100 µM (inactive),51.3 µM (inactive),46 µM (inactive),> 100 µM (inactive),13.9 µM (inactive),51.5 µM (inactive),50.6,> 100 µM (inactive),50.9 µM (inactive),93.3 µM (inactive),69.8 µM (inactive),> 100 µM (inactive),87.7 µM (inactive),45.1 µM (inactive),–
CCCc1n[nH]c(CCC(=O)N(Cc2ccccc2)Cc2ccccc2)c1CC,> 100 µM (inactive),> 100 µM (inactive),–,> 100 µM (inactive),> 100 µM (inactive),> 100 µM (inactive),> 100 µM (inactive),> 100 µM (inactive),> 100 µM (inactive),> 100,> 100 µM (inactive),> 100 µM (inactive),> 100 µM (inactive),> 100 µM (inactive),–,> 100 µM (inactive),> 100 µM (inactive),–
NC(N)NCCCc1cn2c(n1)C1CCCN1C(=O)C2Cc1ccccc1 (stereo not drawn),> 100 µM (inactive),> 100 µM (inactive),> 100 µM (inactive),> 100 µM (inactive),> 100 µM (inactive),> 100 µM (inactive),> 100 µM (inactive),> 100 µM (inactive),> 100 µM (inactive),> 100,> 100 µM (inactive),> 100 µM (inactive),> 100 µM (inactive),> 100 µM (inactive),> 100 µM (inactive),> 100 µM (inactive),> 100 µM (inactive),–
CCC1C(C(=O)Nc2ccccc2C)=C(C)NC(C)=C1c1ccccc1C (stereo not drawn),–,> 100 µM (inactive),> 48.6 µM (inactive),> 100 µM (inactive),> 100 µM (inactive),> 100 µM (inactive),> 100 µM (inactive),> 100 µM (inactive),> 100 µM (inactive),> 40.1,> 100 µM (inactive),> 77.1 µM (inactive),> 80.4 µM (inactive),> 100 µM (inactive),> 100 µM (inactive),> 100 µM (inactive),55.1 µM (inactive),2.88 µM (inactive)
CC(=O)O[C@H]1CC[C@@]2(C)C(=CC[C@H]3C(CC#N)[C@@](C)(C#N)CCC32)C1 (stereo partly drawn),> 100 µM (inactive),> 100 µM (inactive),> 100 µM (inactive),> 100 µM (inactive),> 100 µM (inactive),> 100 µM (inactive),> 100 µM (inactive),> 100 µM (inactive),> 100 µM (inactive),> 100,> 100 µM (inactive),> 100 µM (inactive),> 100 µM (inactive),> 100 µM (inactive),47.6 µM (inactive),> 100 µM (inactive),> 100 µM (inactive),–
COc1ccc(NC(=O)CC2S/C(=N\c3ccccc3C)NC2=O)c([N+](=O)[O-])c1 (stereo not drawn),–,> 100 µM (inactive),> 100 µM (inactive),> 100 µM (inactive),> 100 µM (inactive),> 100 µM (inactive),> 100 µM (inactive),> 100 µM (inactive),> 100 µM (inactive),> 100,> 100 µM (inactive),> 100 µM (inactive),> 100 µM (inactive),> 100 µM (inactive),> 100 µM (inactive),> 100 µM (inactive),–,> 100 µM (inactive)
COC(=O)C1C(C(=O)OC)C2(OC)c3ccccc3-c3ccccc3C12 (stereo not drawn),20.6 µM (inactive),32 µM (inactive),35.4 µM (inactive),31.8 µM (inactive),34.2 µM (inactive),35.6 µM (inactive),31 µM (inactive),66.5 µM (inactive),12.1 µM (inactive),28.4,> 100 µM (inactive),16.1 µM (inactive),33 µM (inactive),75.2 µM (inactive),–,31 µM (inactive),24.7 µM (inactive),15.5 µM (inactive)
C[n+]1ccc(Nc2ccc(NC(=O)c3ccc(Nc4cc[n+](C)c5ccc([N+](=O)[O-])cc45)cc3[N+](=O)[O-])cc2)cc1,0.692 µM (active),48.8 µM (inactive),30.5 µM (inactive),> 100 µM (inactive),63.4 µM (inactive),47.8 µM (inactive),17.8 µM (inactive),27 µM (inactive),35.3 µM (inactive),61.2,> 100 µM (inactive),22.5 µM (inactive),18.3 µM (inactive),27.4 µM (inactive),–,47.6 µM (inactive),33.2 µM (inactive),> 100 µM (inactive)
